How the values were obtained:
C57BL/6J mice [1] = conditions: IP injection of oxycodone; ref previous reports (reference numbers not printed); cited from earlier work
Source text: To confirm that this analgesic effect was due to enzymatic degradation of the prodrug in the digestive system, the antinociceptive effects of prodrug 20 were examined following systemic intraperitoneal (IP) injection.

chymotrypsin and trypsin [2] = assay: Michaelis-Menten kinetics of pNP release in the presence of both chymotrypsin and trypsin; format: biochemical; conditions: for Km / VMax / kCat/KM (substrate specificity): chymotrypsin and trypsin 0.02 mM each, substrate 0.1-2.0 mM, 35 mM HEPES pH 7.5, 37 °C, absorbance 405 nm, average of n = 3
Source text: In order to ensure the prodrug would be cleaved effectively once it was exposed to chymotrypsin and trypsin in concentrations found in the […], we elected to optimize the peptide sequence further, particularly on the ε-amine of the lysine, to enhance the substrate efficiency (Figure B). This would help to ensure that oxycodone is released in the gastrointestinal tract. […] Previous studies have shown that chymotrypsin binding can be enhanced through additional nonbulky amino acid groups following the aromatic residue. ,− Accordingly, substrates 9 and 10, with alanine residues coupled to phenylalanine, were prepared, and their kinetics were examined. […] Coupling a third alanine to the tyrosine residue (12) increased the substrate specificity by around 5-fold compared to 11. Since coupling of alanine residues to the α-amine of 6–8 increased the percentage of pNP release (Figure A), 13 with a single alanine on the N-terminus was prepared. Compared to substrate 11 with no N-terminal alanine, there was a minimal effect on the K M, but the V Max was reduced by half, leading to a lower k Cat/K M. Since 12 had the highest k Cat/K M and the fastest V Max, we proceeded to use this peptide scaffold for further experiments. […]
(§1) General Procedure – Michaelis-Menten Kinetics […]
(§2) substrate concentration of 2.0, 1.5, 1.0, 0.5, 0.24, and 0.1 mM, maintaining a constant concentration of DMSO across all conditions. These solutions were then combined with chymotrypsin and trypsin to afford a final concentration of 0.02 mM for each enzyme. Immediately upon addition of the proteases, the 96-well plate was inserted into the plate reader and the absorbance at 405 nm was monitored over the course of 4 ho urs with time points taken every 30 seconds. The plate was incubated in the plate reader at 37 °C. All conditions were carried out in triplicate and reported as the average between the three replicates. Michaelis -Menten enzyme kinetic analysis was carried out using GraphPad Prism 8.4.3. Substrate concentrations were adjusted as needed to obtain relevant Michaelis -Menten statistics. Concentrations of substrate are shown in their respective activity plots below.

chymotrypsin and trypsin [3] = assay: In vitro simulated digestion (pNP release) assay with trypsin, chymotrypsin or both enzymes; format: biochemical; conditions: substrate 1.5 mM, 35 mM HEPES pH 7.5, 37 °C, n = 3
Method: We hypothesized that by protecting the phenol with a tert-butyl ether, chymotrypsin would not recognize the tyrosine derivative prior to passage through the acidic conditions in the stomach where the tert-butyl ether would be removed. This additional security measure removes the ability to pretreat the prodrug with store-bought digestive enzyme supplements to release the opioid.
General Procedure – Release Kinetics
(§3) The peptide was dissolved in DMSO and diluted using 35 mM HEPES buffer (pH 7.5) to a final substrate concentration of 1.5 mM, maintaining a constant concentration of DMSO across all conditions. These solutions were then combined with either chymotrypsin, trypsin, or both enzymes to afford a final concentration of 0.02 mM for each enzyme. Immediately upon addition of the proteases, the 96-well plate was inserted into the plate reader and the absorbance at 405 nm was monitored over the course of 4 hours with time points taken every 30 seconds. The plate was incubated in the plate reader at 37 °C.
as §1, §2

C57BL/6J mice [4] = assay: Hot plate latency after intraperitoneal injection; format: in vivo, mouse; conditions: 30 mg/kg of oxycodone in prodrug, 55 °C hot plate, n = 6, ns vs water
chymotrypsin and trypsin [5] = assay: Michaelis-Menten competitive inhibition release assay of 12 with peptide byproduct 19; format: biochemical; conditions: 19 at 1.6, 0.8, 0.4 or 0.2 mM; 12 at 0.1-2.0 mM; chymotrypsin and trypsin 0.02 mM each; 35 mM HEPES pH 7.5; n = 3
Source text: Prior to moving forward with analgesia studies in vivo, it was important to ensure that the AAAY (19) peptide byproduct from chymotrypsin cleavage was not competitively inhibiting the pNP release. This could be an issue in vivo, as the PEPT1 transepithelial transporter in the digestive tract has a very weak binding affinity for tetrapeptides. A lack of transport for 19 could lead to the accumulation and generation of a competitive inhibitor for chymotrypsin, thus reducing the overall amount of opioid released. To examine this hypothesis, Michaelis–Menten competitive inhibition enzyme kinetics were performed with chymotrypsin and trypsin for 12 in the presence of peptide 19. […] These observations enhanced our confidence in using the 12 prodrug scaffold for in vivo analgesia studies.
Competitive Inhibition Release Assay
12 was dissolved in DMSO and diluted using 35 mM HEPES buffer (pH 7.5) to a final substrate concentration of 2.0, 1.5, 1.0, 0.5, 0.24, and 0.1 mM, maintaining a constant concentration of DMSO across all conditions. 19 was added to yield a final concentration of either 1.6, 0.8, 0.4, or 0.2 mM. […] Immediately upon addition of the proteases, the 96 - well plate was inserted into the plate reader and the absorbance at 405 nm was monitored over the course of 4 hours. […]

chymotrypsin = molecular target: T1, chymotrypsin (Bos taurus, UniProt P00766); assay: pNP release assay in the presence of chymotrypsin only; format: biochemical; conditions: chymotrypsin only 0.02 mM, substrate 1.5 mM, 35 mM HEPES pH 7.5, 37 °C, absorbance 405 nm, over 4 h
T1 construct: purchased
Source text: Using the branched lysine peptide sequences modified from our previous work, we began to explore the sequence effects on the efficiency and release rate of a model reporter molecule, p-nitrophenol (pNP). Peptides 6–8 were initially prepared to determine whether the peptide backbone length had any effect on the release of pNP in the presence of chymotrypsin alone (Figure A; see Supporting Information (SI) for synthetic procedures). Chymotrypsin promiscuity (i.e., cleavage of both sites) could lead to less misuse deterrence as only one enzyme could promote the release of the opioid. […] However, substrate 8 reached greater than 90% pNP release within 3 h (Figures A and S15). […]
as §3, with “These solutions were then combined with either chymotrypsin, trypsin, or both enzymes to afford a final concentration of 0.02 mM for each enzyme.” left out, “°C. […]” for “°C.”
substrate concentration of 2.0, 1.5, 1.0, 0.5, 0.24, and 0.1 mM, maintaining a constant concentration of DMSO across all conditions. […] The plate was incubated in the plate reader at 37 °C. […]

Compound	Km (chymotrypsin and trypsin [2]) [µM]	VMax (chymotrypsin and trypsin [2]) [µM/s]	other results
COc1ccc2c3c1O[C@H]1C(=O)CC[C@@]4(O)[C@@H](C2)N(C)CC[C@]314 [oxycodone]			analgesic effect after IP injection (C57BL/6J mice [1]): there is an analgesic effect
Ac-Ala-Lys[Tyr-Ala-Ala]-(2-(pNP-thionocarbamate)methyl)ethylamino trifluoroacetate [compound 13]	4160	0.119	
Ac-Lys[Phe-Ala-Ala]-(2-(pNP-thionocarbamate)methyl)ethylamino trifluoroacetate [compound 10]	1970	0.225	kCat/KM (substrate specificity) (chymotrypsin and trypsin [2]): 5.73 × 10^–6 μM^-1s^-1
Ac-Lys[Phe-Ala]-(2-(pNP-thionocarbamate)methyl)ethylamino trifluoroacetate [compound 9]	1420	0.021	
Ac-Lys[Tyr(tBu)-Ala-Ala-Ala]-(2-(pNP-thionocarbamate)methyl)ethylamino trifluoroacetate [compound 14]			pNP release over 150 min (chymotrypsin and trypsin [3]; both chymotrypsin and trypsin 0.02 mM each, absorbance 405 nm, 150 min, no acidic pretreatment): ~5%
Ac-Lys[Tyr-Ala-Ala-Ala]-(2-(oxycodone-thionocarbamate)methyl)ethylamino ditrifluoroacetate [compound 20]			withdrawal threshold (hot plate) latency after IP injection (C57BL/6J mice [4]): did not alleviate acute pain
Ac-Lys[Tyr-Ala-Ala-Ala]-(2-(pNP-thionocarbamate)methyl)ethylamino trifluoroacetate [compound 12]	2350	0.749	increase of substrate specificity (kCat/KM) compared to 11 (chymotrypsin and trypsin [2]; chymotrypsin and trypsin, relative to 11): around 5 fold; pNP release at which the simulated digestion assay stagnated (chymotrypsin and trypsin [3]; both chymotrypsin and trypsin 0.02 mM each, absorbance 405 nm, plateau): ~30%; enzyme requirement for pNP release (chymotrypsin and trypsin [3]; trypsin, chymotrypsin, or both enzymes, 0.02 mM each): only observed in the presence of both proteolytic enzymes
Ac-Lys[Tyr-Ala-Ala]-(2-(pNP-thionocarbamate)methyl)ethylamino trifluoroacetate [compound 11]	4000	0.276	
Ala-Ala-Ala-Tyr trifluoroacetate [compound 19]			competitive inhibition of pNP release from 12 (chymotrypsin and trypsin [5]): negligibly affected
Ala-Lys[(Ac)Phe]-(2-(pNP-thionocarbamate)methyl)ethylamino trifluoroacetate [compound 7]	941	0.019	kCat/KM (substrate specificity) (chymotrypsin and trypsin [2]): 9.97 × 10^–7 μM^-1s^-1; pNP release over the course of 4 h, chymotrypsin alone (chymotrypsin): less than 15%

— publication PMC12569658, “An Orally Administered Misuse Deterrent Opioid Prodrug for Treatment of Acute Pain” (JACS Au, 2025)
